The supplement of paper PMC10307832

What was measured:
Assay in all cases: relative viability (nuclei count vs DMSO), 5 days (fraction); higher = more cells survive
Sunitinib = compound: CCN(CC)CCNC(=O)c1c(C)[nH]c(/C=C2\C(=O)Nc3ccc(F)cc32)c1C [Sunitinib]
How it was run: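 Lung cancer cell lines received five library-drug doses (not always all listed) spaced by √10, pinned on vehicle-anchored 1536-well plates after an overnight stay at 37 °C. Five days later, with no medium change, nuclei were Hoechst-stained, imaged at 4× and counted with MetaXpress. Viability is treated-well nuclei relative to vehicle-well nuclei, as a median across plates. Passing plates had control CV below 25% and at least one doubling.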

Sunitinib + Navitoclax = compound: CCN(CC)CCNC(=O)c1c(C)[nH]c(/C=C2\C(=O)Nc3ccc(F)cc32)c1C [Sunitinib] + CC1(C)CCC(c2ccc(Cl)cc2)=C(CN2CCN(c3ccc(C(=O)NS(=O)(=O)c4ccc(N[C@H](CCN5CCOCC5)CSc5ccccc5)c(S(=O)(=O)C(F)(F)F)c4)cc3)CC2)C1 [Navitoclax] (partner 0.5 µM)
How it was run: (§1)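 The day after seeding in 1536-well plates, lung cancer cell lines were treated by pin tool with a single drug, or with a fixed anchor-drug dose together with five library-drug doses (not always all listed) in √10 steps. After 5 days, a combined fix-and-stain solution (final 0.05% Triton X-100, 1% formaldehyde, 1 ug/ml Hoechst) was added. Nuclei counted on 4× images gave relative viability as treated counts over vehicle counts, reported as the median of duplicate plates.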

Sunitinib + Tozasertib = compound: CCN(CC)CCNC(=O)c1c(C)[nH]c(/C=C2\C(=O)Nc3ccc(F)cc32)c1C [Sunitinib] + Cc1cc(Nc2cc(N3CCN(C)CC3)nc(Sc3ccc(NC(=O)C4CC4)cc3)n2)n[nH]1 [Tozasertib] (partner 0.1 µM)
How it was run: as §1

Sunitinib + Phenformin = compound: CCN(CC)CCNC(=O)c1c(C)[nH]c(/C=C2\C(=O)Nc3ccc(F)cc32)c1C [Sunitinib] + N=C(N)NC(=N)NCCc1ccccc1 [Phenformin] (partner 250 µM)
How it was run: as §1

Cell Line	relative viability (Sunitinib; 0.06325 µM)	relative viability (Sunitinib; 0.2 µM)	relative viability (Sunitinib; 0.6325 µM)	relative viability (Sunitinib; 2 µM)	relative viability (Sunitinib + Navitoclax; first compound 0.02 µM)	relative viability (Sunitinib + Navitoclax; first compound 0.06325 µM)	relative viability (Sunitinib + Navitoclax; first compound 0.2 µM)	relative viability (Sunitinib + Navitoclax; first compound 0.6325 µM)	relative viability (Sunitinib + Navitoclax; first compound 2 µM)	relative viability (Sunitinib + Tozasertib; first compound 0.02 µM)	relative viability (Sunitinib + Tozasertib; first compound 0.06325 µM)	relative viability (Sunitinib + Tozasertib; first compound 0.2 µM)	relative viability (Sunitinib + Tozasertib; first compound 0.6325 µM)	relative viability (Sunitinib + Tozasertib; first compound 2 µM)	relative viability (Sunitinib + Phenformin; first compound 0.02 µM)	relative viability (Sunitinib + Phenformin; first compound 0.06325 µM)	relative viability (Sunitinib + Phenformin; first compound 0.2 µM)	relative viability (Sunitinib + Phenformin; first compound 0.6325 µM)	relative viability (Sunitinib + Phenformin; first compound 2 µM)	relative viability (Sunitinib; 0.02 µM)
HCC-44	1.04	1.04	1.01	1.04	0.96	0.964	1.05	0.946	0.969	0.923	1.01	1.44	1.07	0.499	0.29	0.238	0.274	0.145	0.142	–
HCC-78	0.947	0.994	0.899	1	0.756	–	0.684	–	0.869	0.411	0.502	0.548	1.43	0.43	0.639	0.726	0.71	0.677	0.806	0.984
HCC-366	1.05	1.07	–	0.965	0.963	1.06	–	1.05	0.971	0.12	0.0634	0.133	0.0819	0.0457	0.559	0.624	0.644	0.599	0.544	0.963
HCC-827	1.06	1.05	1.05	1.04	1.01	1.05	1.04	1.01	0.978	0.405	0.416	0.449	0.439	0.407	0.366	0.401	0.439	0.403	0.291	1.01
HOP-62	1.07	1.13	1.1	1.06	1.09	1.16	1.17	1.09	0.942	0.351	0.352	0.383	0.431	0.397	0.614	0.713	0.745	0.661	0.698	0.95
LC-2-ad	1.01	1.09	1	0.781	0.381	0.495	0.714	0.406	0.355	0.479	0.484	0.486	0.502	0.493	0.526	0.574	0.643	0.61	0.573	0.945
LCLC-97TM1	1.14	1.01	1.02	1.09	0.465	0.402	–	0.401	0.323	0.202	0.214	0.268	0.195	0.236	0.463	0.438	0.442	0.406	0.426	0.968
LK-2	1.02	1.22	0.905	1.01	0.737	0.963	1.12	0.862	0.836	0.177	0.196	0.167	0.167	0.188	0.224	0.427	0.406	0.494	0.249	0.936
